These results are taken from paper PMC6039436, “Radiobrominated benzimidazole-quinoline derivatives as Platelet-derived growth factor receptor beta (PDGFRβ) imaging probes” (Scientific Reports, 2018).

Structures are written as SMILES. Marks after values point to notes of the source that are not given here.

For one data set, the target named is T1, PDGFRβ (BxPC3-luc cells) (Homo sapiens, UniProt P09619).
T1 construct: host or cells: BxPC3-luc cells
In words: Competitive binding assay of [^125I]4 with BxPC3-luc cells. The following applies: displacement of [^125I]4, BxPC3-luc cells, 37 °C, 4 h. The protocol:
We investigated the competitive binding of [^125I]4 to BxPC3-luc cells with PDGFRβ ligand, 1, 2, and 3.
BxPC3-luc cells in medium containing 10% FBS and antibiotics were seeded on 24-well plates (50,000 cells/wells) and incubated for 24 h in a 5% CO2 incubator at 37 °C. Nine concentrations of displacing nonradiolabeled ligands (1, 2 and 3) (ranging from 1 pM to 1 mM) and [^125I]4 in medium without FBS were incubated at 37 °C for 4 h. After washing the cells twice using 250 µL of ice-cold PBS, the unbound radioligand was removed. The cells were dissolved using 250 µL of 1 M NaOH and wells were washed with 250 µL of 1 M NaOH. The bound radioactivity was determined using a gamma counter.
All data were statisticaly analyzed using GraphPad 5.0 software (La Jolla, CA, USA) and expressed as mean ± standard deviation (SD). Significance for in vitro blocking experiments was determined by a one-way analysis of variance (ANOVA) followed by Dunnett’s post hoc test compared to the control group. Significance in cell viability assays was determined by ANOVA followed by Tukey’s post hoc test. IC50 values for the binding assay were calculated by nonlinear regression. Significant differences in biodistribution experiments between [^77Br]2 and [^77Br]3 groups were determined using unpaired Student’s t-test. Significance for in vivo blocking studies between control and blocking groups were determined by unpaired Student’s t-test. Results were considered statistically significant at p < 0.05.

Data set [1] is described as follows: Biodistribution in ddY mice. The format is in vivo. The following applies: i.v. co-injection. The protocol: In this study, to minimize both the number of mice consumed in the experiment and the potential for experimental errors, we co-injected radiobrominated and radioiodinated compounds into mice[30],[31]. High radioactivity in the liver, small intestine, and large intestine was observed.
(§1) Mice were intravenously injected via the tail with 100 µL of saline solution of [^77Br]2 and [^125I]4 or [^77Br]3 and [^125I]5 (74 kBq, respectively), containing 10% ethanol and 1% tween-80. The ddY mice were sacrificed at 10 min, 1, 4, and 24 h postinjection. Meanwhile, tumor-bearing mice were sacrificed at 1 h postinjection.
(§2) Tissues in mice were resected and weighed. The radioactivity of the tissues was counted by a gamma counter and counts were corrected for background radiation. The data were expressed as percent injection dose per gram tissue (%ID/g).

The subject of a further data set is BxPC3-luc tumor. The data set can be described thus: Biodistribution in BxPC3-luc tumor-bearing mice. The following applies: i.v. co-injection, 1 h. The format is in vivo, BALB/c nu/nu mice. On the procedure: We investigated the biodistribution of the radiotracers in BxPC3-luc tumor-bearing mice by co-injecting [^77Br]2 with [^125I]4 (Table 3), and [^77Br]3 with [^125I]5 (Table 4).
Animal experiments were conducted in strict accordance with the Guidelines for the Care and Use of Laboratory Animals of Kanazawa University. The animal experimental protocols used were approved by the Committee on Animal Experimentation of Kanazawa University (Permit Number: AP-163766). The animals were housed with free access to food and water at approximately 23 °C with a 12 h light/dark schedule. ddY mice (six-week-old, male, 27–30 g) and BALB/c nu/nu mice (four-week-old, female, 12–17 g) were purchased from Japan SLC Inc. (Hamamatsu, Japan). For preparing the tumor-bearing mice, BxPC3-luc cells (5 × 10^6 cells) were subcutaneously injected into the left shoulder of BALB/c nu/nu mice. The tumor reached palpable size after two weeks of the inoculation.
as §1, §2

Details of data set [2]: method as in PMID 28838832. The following applies: radioiodinated compounds; cited from earlier work.

T1 sequence (P09619 33-1106): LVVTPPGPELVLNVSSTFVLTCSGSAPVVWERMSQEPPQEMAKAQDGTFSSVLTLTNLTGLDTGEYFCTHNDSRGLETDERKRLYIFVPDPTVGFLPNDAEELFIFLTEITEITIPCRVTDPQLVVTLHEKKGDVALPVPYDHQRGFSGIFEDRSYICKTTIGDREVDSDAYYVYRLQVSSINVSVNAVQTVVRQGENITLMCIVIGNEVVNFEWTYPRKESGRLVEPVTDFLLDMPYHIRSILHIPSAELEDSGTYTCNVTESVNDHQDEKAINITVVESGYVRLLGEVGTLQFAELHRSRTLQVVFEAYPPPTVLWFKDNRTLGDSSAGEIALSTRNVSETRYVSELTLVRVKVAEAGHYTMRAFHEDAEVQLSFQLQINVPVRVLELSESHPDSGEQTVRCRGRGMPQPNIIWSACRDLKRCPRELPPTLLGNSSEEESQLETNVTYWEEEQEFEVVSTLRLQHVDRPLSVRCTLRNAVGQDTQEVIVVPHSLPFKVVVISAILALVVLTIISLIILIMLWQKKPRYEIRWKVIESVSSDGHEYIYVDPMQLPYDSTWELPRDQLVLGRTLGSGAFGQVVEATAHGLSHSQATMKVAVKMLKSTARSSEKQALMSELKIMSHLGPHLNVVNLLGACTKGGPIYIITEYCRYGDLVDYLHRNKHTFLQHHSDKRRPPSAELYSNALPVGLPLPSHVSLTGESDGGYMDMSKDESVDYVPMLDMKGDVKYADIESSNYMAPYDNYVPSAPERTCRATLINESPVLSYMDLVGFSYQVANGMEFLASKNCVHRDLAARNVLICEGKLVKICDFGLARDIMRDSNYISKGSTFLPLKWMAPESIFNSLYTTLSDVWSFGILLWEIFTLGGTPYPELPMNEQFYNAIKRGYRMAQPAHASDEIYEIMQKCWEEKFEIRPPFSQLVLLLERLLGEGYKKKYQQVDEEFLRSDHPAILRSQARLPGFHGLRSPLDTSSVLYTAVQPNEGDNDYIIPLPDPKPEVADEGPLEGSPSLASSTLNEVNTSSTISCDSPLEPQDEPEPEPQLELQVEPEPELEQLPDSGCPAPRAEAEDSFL

For `COCCOc1ccc2c(c1)ncn2-c1ccc2cccc(N3CCC(N)CC3)c2n1` [Compound 1, 1-{2-[5-(2-methoxyethoxy)-1H-benzo[d]imidazol-1-yl]quinolin-8-yl}piperidin-4-amine, reference compound], the IC50 at PDGFRβ (BxPC3-luc cells) is 183 ± 8 nM.

`COCCOc1ccc2c(c1)ncn2-c1ccc2cccc(N3CCC(NC(=O)c4cccc(Br)c4)CC3)c2n1` [Compound 3, N-3-bromobenzoyl-1-{2-[5-(2-methoxyethoxy)-1H-benzo[d]imidazol-1-yl]quinolin-8-yl}-piperidin-4-amine] showed an IC50 on PDGFRβ (BxPC3-luc cells) of 1280 nM.

With `COCCOc1ccc2c(c1)ncn2-c1ccc2cccc(N3CCC(NC(=O)c4cccc([125I])c4)CC3)c2n1` [[^125I]5, [^125I]N-3-iodobenzoyl-1-{2-[5-(2-methoxyethoxy)-1H-benzo[d]imidazol-1-yl]quinolin-8-yl}-piperidin-4-amine, reference compound], in data set [1] (10 min), the “Radioactivity in Blood” value is 0.94 (0.14)^** %injected dose/gram tissue, the “Radioactivity in Bone” value is 0.81 (0.11)^** %injected dose/gram tissue, the “Radioactivity in Brain” value was 0.19 (0.03)^** %injected dose/gram tissue and the “Radioactivity in Heart” value is listed as 1.66 (0.23)^** %injected dose/gram tissue. For the same molecule, in data set [1] (10 min), the “Radioactivity in Kidney” value is listed as 5.23 (0.65) %injected dose/gram tissue, the “Radioactivity in Large intestine” value is listed as 0.75 (0.06)^* %injected dose/gram tissue, the “Radioactivity in Liver” value was 16.37 (2.05)^** %injected dose/gram tissue and the “Radioactivity in Lung” value was 1.80 (0.30)^* %injected dose/gram tissue. In data set [1] (10 min), the “Radioactivity in Muscle” value is 0.97 (0.16)^* %injected dose/gram tissue, the “Radioactivity in Pancreas” value is recorded as 2.41 (0.20) %injected dose/gram tissue, the “Radioactivity in Small intestine” value is 9.59 (1.71)^** %injected dose/gram tissue and the “Radioactivity in Spleen” value was 1.72 (0.23) %injected dose/gram tissue. Further, the “Radioactivity in Stomach” value in data set [1] (10 min) was 2.09 (1.12) %injected dose /organ. In data set [1] (1 h), the “Radioactivity in Blood” value is on record as 0.26 (0.05)^** %injected dose/gram tissue, the “Radioactivity in Bone” value is on record as 0.64 (0.31)^*** %injected dose/gram tissue, the “Radioactivity in Brain” value is listed as 0.07 (0.03)^** %injected dose/gram tissue and the “Radioactivity in Heart” value is 0.39 (0.15)^** %injected dose/gram tissue. For the same molecule, in data set [1] (1 h), the “Radioactivity in Kidney” value is 1.57 (0.42) %injected dose/gram tissue, the “Radioactivity in Large intestine” value is 3.46 (2.18) %injected dose/gram tissue, the “Radioactivity in Liver” value is listed as 3.32 (0.49)^** %injected dose/gram tissue and the “Radioactivity in Lung” value is 1.07 (0.08) %injected dose/gram tissue. In data set [1] (1 h), the “Radioactivity in Muscle” value is recorded as 0.31 (0.13)^* %injected dose/gram tissue, the “Radioactivity in Pancreas” value was 0.86 (0.07)^** %injected dose/gram tissue, the “Radioactivity in Small intestine” value is 24.03 (1.45)^** %injected dose/gram tissue and the “Radioactivity in Spleen” value was 0.70 (0.16)^** %injected dose/gram tissue. Moreover, the “Radioactivity in Stomach” value in data set [1] (1 h) was 0.78 (0.19) %injected dose /organ. Besides, in data set [1] (4 h), the “Radioactivity in Blood” value was 0.08 (0.01)^** %injected dose/gram tissue, the “Radioactivity in Bone” value is given as 0.40 (0.09)^** %injected dose/gram tissue, the “Radioactivity in Brain” value is recorded as 0.01 (0.00)^** %injected dose/gram tissue and the “Radioactivity in Heart” value is reported as 0.20 (0.04)^** %injected dose/gram tissue. Further, in data set [1] (4 h), the “Radioactivity in Kidney” value is listed as 0.36 (0.10)^* %injected dose/gram tissue, the “Radioactivity in Large intestine” value is reported as 18.55 (1.85)^** %injected dose/gram tissue, the “Radioactivity in Liver” value is on record as 1.21 (0.96) %injected dose/gram tissue and the “Radioactivity in Lung” value is 0.50 (0.19) %injected dose/gram tissue. For the same molecule, in data set [1] (4 h), the “Radioactivity in Muscle” value was 0.16 (0.08)^* %injected dose/gram tissue, the “Radioactivity in Pancreas” value is 0.27 (0.07)^** %injected dose/gram tissue, the “Radioactivity in Small intestine” value is 1.32 (0.66)^* %injected dose/gram tissue and the “Radioactivity in Spleen” value is 0.27 (0.09)^** %injected dose/gram tissue. Also, the “Radioactivity in Stomach” value in data set [1] (4 h) is recorded as 0.27 (0.10) %injected dose /organ. In data set [1] (24 h), the “Radioactivity in Blood” value is 0.01 (0.00)^** %injected dose/gram tissue, the “Radioactivity in Bone” value is 0.06 (0.00)^** %injected dose/gram tissue, the “Radioactivity in Brain” value is recorded as 0.00 (0.00)^** %injected dose/gram tissue and the “Radioactivity in Heart” value is 0.02 (0.01)^** %injected dose/gram tissue. Moreover, in data set [1] (24 h), the “Radioactivity in Kidney” value is given as 0.05 (0.00)^** %injected dose/gram tissue, the “Radioactivity in Large intestine” value was 0.02 (0.00)^** %injected dose/gram tissue, the “Radioactivity in Liver” value is listed as 0.06 (0.00)^** %injected dose/gram tissue and the “Radioactivity in Lung” value was 0.01 (0.00)^** %injected dose/gram tissue. Besides, in data set [1] (24 h), the “Radioactivity in Muscle” value is reported as 0.01 (0.00)^** %injected dose/gram tissue, the “Radioactivity in Pancreas” value was 0.02 (0.00)^** %injected dose/gram tissue, the “Radioactivity in Small intestine” value is listed as 0.01 (0.00)^** %injected dose/gram tissue and the “Radioactivity in Spleen” value is listed as 0.02 (0.00)^** %injected dose/gram tissue. Moreover, the “Radioactivity in Stomach” value in data set [1] (24 h) is recorded as 0.01 (0.00)^** %injected dose /organ. Besides, in the data set on BxPC3-luc tumor, the “Radioactivity in Blood” value is given as 0.23 (0.02)^** %injected dose/gram of tissue, the “Radioactivity in Bone” value is 0.31 (0.04)^** %injected dose/gram of tissue, the “Radioactivity in Brain” value is given as 0.05 (0.00)^** %injected dose/gram of tissue and the “Radioactivity in BxPC3-luc tumor” value is reported as 0.55 (0.09)^* %injected dose/gram of tissue. Besides, in the data set on BxPC3-luc tumor, the “Radioactivity in Heart” value was 0.42 (0.05)^** %injected dose/gram of tissue, the “Radioactivity in Kidney” value is reported as 1.13 (0.11)^** %injected dose/gram of tissue, the “Radioactivity in Large intestine” value is listed as 7.98 (3.79) %injected dose/gram of tissue and the “Radioactivity in Liver” value is reported as 4.83 (0.71)^** %injected dose/gram of tissue. In the data set with BxPC3-luc tumor, the “Radioactivity in Lung” value was 1.16 (0.23)^** %injected dose/gram of tissue, the “Radioactivity in Muscle” value is 0.38 (0.06)^** %injected dose/gram of tissue, the “Radioactivity in Pancreas” value was 1.25 (0.17)^** %injected dose/gram of tissue and the “Radioactivity in Small intestine” value is recorded as 46.95 (2.88)^** %injected dose/gram of tissue. Moreover, in the data set with BxPC3-luc tumor, the “Radioactivity in Spleen” value is 0.61 (0.06)^** %injected dose/gram of tissue and the “Radioactivity in Stomach” value is recorded as 0.27 (0.06)^* %injected dose /organ. In addition, the “n-octanol/phosphate buffer partition coefficient (log P)” value in data set [2] is listed as 3.19 ± 0.17.

The term IC50 denotes the concentration needed to halve the response being measured. A higher IC50 goes with a need for much substance.
